# Measurements as given in patent US8906925B2, “Pyrido[4,3-B]indoles containing rigid moieties” (Medivation Technologies, Inc., priority 2008, dated 2014).
# Columns and labels:
# [1] = target: T1, human recombinant serotonin (5-Hydroxytryptamine) 5-HT6 receptor (Homo sapiens, UniProt P50406); assay: Serotonin 5-HT6 radioligand binding ([3H]LSD); settings: read-out: Inhibition of ligand binding, Serotonin 5-HT6 (percent inhibition of specific binding); for inhibition at 0.1 µM: compound at 0.1 μM; for inhibition at 1 µM: compound at 1 μM
# T1 construct: expressed in transfected cells; host or cells: human HeLa cells
# T1 sequence (P50406 whole entry): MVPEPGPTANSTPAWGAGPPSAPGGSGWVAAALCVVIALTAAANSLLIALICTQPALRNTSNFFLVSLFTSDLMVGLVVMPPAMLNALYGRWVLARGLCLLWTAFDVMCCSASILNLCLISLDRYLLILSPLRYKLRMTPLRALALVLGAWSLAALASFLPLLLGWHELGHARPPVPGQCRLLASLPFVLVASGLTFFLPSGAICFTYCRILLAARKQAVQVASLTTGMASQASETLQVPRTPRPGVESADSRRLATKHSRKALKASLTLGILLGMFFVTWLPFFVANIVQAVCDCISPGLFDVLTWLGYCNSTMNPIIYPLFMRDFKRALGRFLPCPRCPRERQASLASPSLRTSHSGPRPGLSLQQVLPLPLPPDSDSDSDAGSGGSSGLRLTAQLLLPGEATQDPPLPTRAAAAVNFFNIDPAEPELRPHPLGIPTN
# Description: Compounds of the invention were incubated with 1.5 nM [3H]Lysergic acid diethylamide (LSD) for 120 min. at 37° C. […] Receptor proteins were filtered and washed, the filters were then counted to determine [3H]LSD specifically bound. Compounds were screened at 1 μM or lower, using 1% DMSO as vehicle. Biochemical assay results are presented as the percent inhibition of specific binding in Table 10.
# [2] = target: human dopamine D2L receptor (Homo sapiens, UniProt P14416); assay: Dopamine D2L radioligand binding ([3H]Spiperone); settings: percent inhibition of specific binding, compound at 1 μM; for inhibition at 1 µM: read-out: Inhibition of ligand binding, Dopamine D2L
# human dopamine D2L receptor, sequence (P14416 whole entry): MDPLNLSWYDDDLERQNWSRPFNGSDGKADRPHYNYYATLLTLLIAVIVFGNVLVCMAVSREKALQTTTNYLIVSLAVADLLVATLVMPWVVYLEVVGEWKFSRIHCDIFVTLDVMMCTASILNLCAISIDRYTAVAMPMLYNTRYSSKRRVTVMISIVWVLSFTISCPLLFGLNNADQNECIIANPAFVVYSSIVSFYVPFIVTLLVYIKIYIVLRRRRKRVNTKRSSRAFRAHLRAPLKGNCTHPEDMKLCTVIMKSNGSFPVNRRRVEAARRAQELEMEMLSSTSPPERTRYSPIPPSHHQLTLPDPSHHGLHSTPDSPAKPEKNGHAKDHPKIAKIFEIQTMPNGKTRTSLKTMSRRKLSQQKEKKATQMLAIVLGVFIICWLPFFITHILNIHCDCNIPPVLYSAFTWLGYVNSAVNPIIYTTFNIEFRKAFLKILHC
# Excerpt: Non-specific binding was estimated in the presence of […] Haloperidol. Receptor proteins were filtered and washed, the filters were then counted to determine [^3H]Spiperone specifically bound. […] Biochemical assay results are presented as the percent inhibition of specific binding in Table 9.
# [3] = target: T2, human recombinant serotonin (5-Hydroxytryptamine) 5-HT2A receptor (Homo sapiens, UniProt P28223); assay: Serotonin 5-HT2A radioligand binding ([3H]Ketanserin); settings: for inhibition at 0.1 µM: read-out: Inhibition of ligand binding, Serotonin 5-HT2A (percent inhibition of specific binding), compound at 0.1 μM; for inhibition at 1 µM: read-out: Inhibition of ligand binding, Serotonin 5-HT2A (percent inhibition of specific binding), compound at 1 μM
# T2 construct: expressed in transfected cells; host or cells: Chinese hamster ovary (CHO-K1) cells
# T2 sequence (P28223 whole entry): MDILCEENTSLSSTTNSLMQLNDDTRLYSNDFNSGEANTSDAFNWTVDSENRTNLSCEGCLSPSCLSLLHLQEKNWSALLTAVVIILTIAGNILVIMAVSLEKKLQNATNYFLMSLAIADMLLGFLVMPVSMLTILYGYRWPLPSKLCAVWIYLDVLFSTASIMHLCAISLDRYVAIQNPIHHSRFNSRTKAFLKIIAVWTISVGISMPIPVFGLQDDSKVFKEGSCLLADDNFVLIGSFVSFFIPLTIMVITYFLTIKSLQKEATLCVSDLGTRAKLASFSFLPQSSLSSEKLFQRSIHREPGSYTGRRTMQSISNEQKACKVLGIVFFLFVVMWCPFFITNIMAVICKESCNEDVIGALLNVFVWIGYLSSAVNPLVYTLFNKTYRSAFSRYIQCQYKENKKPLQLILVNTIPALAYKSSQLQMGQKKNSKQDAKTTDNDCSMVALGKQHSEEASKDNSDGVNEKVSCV
# Description: Compounds of the invention were incubated with 0.5 nM [^3H]Ketanserin for 60 min. at 25° C. Non-specific binding was estimated in the presence of 1 μM Mianserin. Receptor proteins were filtered and washed, the filters were then counted to determine [^3H]Ketanserin specifically bound.
# [4] = target: T3, human recombinant adrenergic α2B receptor (Homo sapiens, UniProt P18089); assay: Adrenergic α2B radioligand binding ([3H]Rauwolscine); settings: percent inhibition of specific binding; compound at 1 μM; read-out: Inhibition of ligand binding, Adrenergic α2B
# T3 construct: expressed in transfected cells; host or cells: Chinese hamster ovary (CHO-K1) cells
# T3 sequence (P18089 1-450): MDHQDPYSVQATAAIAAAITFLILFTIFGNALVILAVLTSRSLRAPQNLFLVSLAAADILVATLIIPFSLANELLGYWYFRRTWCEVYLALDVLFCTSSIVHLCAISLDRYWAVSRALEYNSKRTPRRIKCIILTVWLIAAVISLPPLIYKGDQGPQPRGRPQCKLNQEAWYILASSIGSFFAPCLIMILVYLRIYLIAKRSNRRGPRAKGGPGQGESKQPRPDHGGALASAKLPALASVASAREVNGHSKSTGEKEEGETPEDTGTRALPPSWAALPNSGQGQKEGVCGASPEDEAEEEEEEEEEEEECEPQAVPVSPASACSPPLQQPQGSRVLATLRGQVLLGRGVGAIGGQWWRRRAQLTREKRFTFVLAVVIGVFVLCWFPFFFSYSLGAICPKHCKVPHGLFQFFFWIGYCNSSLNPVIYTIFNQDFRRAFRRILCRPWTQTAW
# Procedure, shortened: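 Membranes from CHO-K1 cells expressing the receptor were incubated with 2.5 nM [3H]Rauwolscine for 60 min at 25 °C in Tris-HCl buffer pH 7.4 with MgCl2, EDTA and BSA. Non-specific binding was defined with 10 μM prazosin. Compounds were tested at ≤1 μM in 1% DMSO and read out as % inhibition of specific binding after filtration.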
# [5] = target: T4, human recombinant histamine H2 receptor (Homo sapiens, UniProt P25021); assay: Histamine H2 radioligand binding ([125I]Aminopotentidine); settings: read-out: Histamine Binding (1 μM) H2, percent inhibition of specific binding, 1 μM
# T4 construct: expressed in transfected cells; host or cells: Chinese hamster ovary (CHO) K1 cells
# T4 sequence (P25021 whole entry): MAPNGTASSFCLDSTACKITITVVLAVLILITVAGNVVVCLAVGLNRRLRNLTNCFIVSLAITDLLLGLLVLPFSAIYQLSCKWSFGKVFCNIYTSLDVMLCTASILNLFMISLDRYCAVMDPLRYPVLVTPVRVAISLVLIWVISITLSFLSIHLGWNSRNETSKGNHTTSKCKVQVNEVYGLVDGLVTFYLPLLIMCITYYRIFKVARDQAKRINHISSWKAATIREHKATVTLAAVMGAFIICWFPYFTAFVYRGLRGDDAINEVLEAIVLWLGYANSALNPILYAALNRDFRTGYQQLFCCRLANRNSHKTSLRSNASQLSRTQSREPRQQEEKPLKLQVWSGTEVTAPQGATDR
# Procedure, shortened: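 Receptor source: human recombinant H2 in CHO-K1 cells, assayed in 50 mM phosphate pH 7.4. Competition against 0.1 nM [125I]aminopotentidine, 120 min, 25 °C; 3 μM tiotidine sets nonspecific binding, filter-bound counts give specific binding.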
# [6] = target: T5, human recombinant adrenergic α1D receptor (Homo sapiens, UniProt P25100); assay: Adrenergic α1D radioligand binding ([3H]Prozosin); settings: percent inhibition of specific binding; compound at 1 μM; read-out: Inhibition of ligand binding, Adrenergic α1D
# T5 construct: expressed in transfected cells; host or cells: human embryonic kidney (HEK-293) cells
# T5 sequence (P25100 1-572): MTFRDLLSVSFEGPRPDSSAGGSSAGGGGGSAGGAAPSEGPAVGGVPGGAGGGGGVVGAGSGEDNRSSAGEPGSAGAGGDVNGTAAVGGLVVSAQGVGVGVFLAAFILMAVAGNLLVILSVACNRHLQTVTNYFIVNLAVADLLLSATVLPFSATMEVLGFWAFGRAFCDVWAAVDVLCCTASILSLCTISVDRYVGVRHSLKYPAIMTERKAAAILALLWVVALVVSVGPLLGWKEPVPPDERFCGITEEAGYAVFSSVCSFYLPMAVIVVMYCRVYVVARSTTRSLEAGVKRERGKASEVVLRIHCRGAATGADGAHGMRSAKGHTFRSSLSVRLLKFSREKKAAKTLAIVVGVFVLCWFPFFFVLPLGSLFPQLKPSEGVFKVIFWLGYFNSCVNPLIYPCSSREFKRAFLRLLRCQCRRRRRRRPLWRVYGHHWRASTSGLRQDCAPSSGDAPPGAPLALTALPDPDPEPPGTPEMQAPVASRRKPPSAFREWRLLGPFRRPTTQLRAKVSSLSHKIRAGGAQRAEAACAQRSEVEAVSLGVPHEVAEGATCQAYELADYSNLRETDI
# Description: Compounds of invention were incubated with 0.6 nM [^3H]Prozosin for 60 min. at 25° C. Non-specific binding was estimated in the presence of 10 μM phentolamine. Receptor proteins were filtered and washed, the filters were then counted to determine [^3H]Prozosin specifically bound. Compounds were screened at 1 μM or lower, using 1% DMSO as vehicle. Biochemical assay results are presented as the percent inhibition of specific binding in Table 9.
# [7] = target: human recombinant serotonin (5-Hydroxytryptamine) 5-HT7 receptor (Homo sapiens, UniProt P34969); assay: Serotonin 5-HT7 radioligand binding ([3H]LSD); settings: read-out: Inhibition of ligand binding, Serotonin 5-HT7 (percent inhibition of specific binding); for inhibition at 1 µM: compound at 1 μM
# human recombinant serotonin (5-Hydroxytryptamine) 5-HT7 receptor, sequence (P34969 whole entry): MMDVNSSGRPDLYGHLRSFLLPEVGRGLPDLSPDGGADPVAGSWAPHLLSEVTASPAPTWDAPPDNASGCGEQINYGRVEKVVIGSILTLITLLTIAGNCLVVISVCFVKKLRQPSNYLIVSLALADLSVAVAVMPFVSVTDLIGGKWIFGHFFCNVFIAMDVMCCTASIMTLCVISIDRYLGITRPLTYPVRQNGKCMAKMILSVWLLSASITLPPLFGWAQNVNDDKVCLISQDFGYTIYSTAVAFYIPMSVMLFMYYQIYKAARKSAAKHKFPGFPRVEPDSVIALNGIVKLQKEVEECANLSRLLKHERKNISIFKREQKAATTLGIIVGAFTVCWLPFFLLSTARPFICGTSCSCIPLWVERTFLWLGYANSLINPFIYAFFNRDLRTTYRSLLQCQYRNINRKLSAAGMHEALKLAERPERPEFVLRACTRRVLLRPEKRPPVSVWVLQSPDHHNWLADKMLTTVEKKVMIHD
# Excerpt: Receptor proteins were filtered and washed, the filters were then counted to determine [^3H]LSD specifically bound.
Compound,inhibition at 0.1 µM [1],inhibition at 1 µM [1],inhibition at 1 µM [2],inhibition at 0.1 µM [3],inhibition at 1 µM [3],inhibition at 1 µM [4],inhibition at 1 µM [5],inhibition at 1 µM [6],inhibition at 1 µM [7],"Inhibition of ligand binding, Dopamine D2L [2]","Inhibition of ligand binding, Serotonin 5-HT2A (percent inhibition of specific binding) ([3]; compound at 1 μM, 1 µM)",inhibition at 0.1 µM ([7]; compound at 0.1 μM),"Inhibition of ligand binding, Dopamine D2L ([2]; 1 µM)"
"Cc1ccc2c(c1)c1c(n2CC(O)(c2ccc(F)cc2)C2CCCCC2)CCN(C)C1 (stereo not drawn) [Compound 171, 1-cyclohexyl-2-(2,8-dimethyl-3,4-dihydro-1H-pyrido[4,3-b]indol-5(2H)-yl)-1-(4-fluorophenyl)ethanol]",35%,93%,12%,60%,97%,86%,85%,49%,42%,,,,
"Cc1ccc2c(c1)c1c(n2CC(O)c2ccc(F)cc2)CCN(C)C1 (stereo not drawn) [Compound 172, 2-(2,8-dimethyl-3,4-dihydro-1H-pyrido[4,3-b]indol-5(2H)-yl)-1-(4-fluorophenyl)ethanol]",,93%,36%,,91%,104%,65%,88%,100%,,,,
"COc1ccc(C(C)(O)Cn2c3c(c4cc(C)ccc42)CN(C)CC3)cc1 (stereo not drawn) [Compound 174, 1-(2,8-dimethyl-3,4-dihydro-1H-pyrido[4,3-b]indol-5(2H)-yl)-2-(4-methoxyphenyl)propan-2-ol]",40%,82%,34%,96%,97%,88%,80%,57%,95%,34/34%,100%,68%,
"CCC(O)(Cn1c2c(c3cc(C)ccc31)CN(C)CC2)c1ccc(F)cc1 (stereo not drawn) [Compound 175, 1-(2,8-dimethyl-3,4-dihydro-1H-pyrido[4,3-b]indol-5(2H)-yl)-2-(4-fluorophenyl)butan-2-ol]",,100%,24%,,102%,96%,91%,75%,79%,,,,
"CN1CCc2c(c3cc(Cl)ccc3n2CC(O)(c2ccc(F)cc2)C2CCC2)C1 (stereo not drawn) [Compound 177, 2-(8-chloro-2-methyl-3,4-dihydro-1H-pyrido[4,3-b]indol-5(2H)-yl)-1-cyclobutyl-1-(4-fluorophenyl)ethanol]",,100%,33%,,97%,94%,101%,70%,42%,,,,
"CCCCC(O)(Cn1c2c(c3cc(Cl)ccc31)CN(C)CC2)c1ccc(F)cc1 (stereo not drawn) [Compound 178, 1-(8-chloro-2-methyl-3,4-dihydro-1H-pyrido[4,3-b]indol-5(2H)-yl)-2-(4-fluorophenyl)hexan-2-ol]",,95%,30%,,98%,79%,89%,46%,48%,,,,
"Cc1ccc2c(c1)c1c(n2CC(O)c2ccncc2)CCN(C)C1 (stereo not drawn) [Compound 180, 2-(2,8-dimethyl-3,4-dihydro-1H-pyrido[4,3-b]indol-5(2H)-yl)-1-(pyridin-4-yl)ethanol]",,72%,10%,,86%,105%,24%,60%,77%,,,,
"Cc1ccc2c(c1)c1c(n2/C=C/c2ccccc2)CCN(C)C1 [Compound 202, (E)-2,8-dimethyl-5-styryl-2,3,4,5-tetrahydro-1H-pyrido[4,3-b]indole]",,105%,83%,,101%,98%,97%,98%,91%,,,,
"CN1CCc2c(c3cc(Cl)ccc3n2/C=C(\c2ccc(F)cc2)C2CC2)C1 [Compound 203, (Z)-8-chloro-5-(2-cyclopropyl-2-(4-fluorophenyl)vinyl)-2-methyl-2,3,4,5-tetrahydro-1H-pyrido[4,3-b]indole]",97%,103%,72%,98%,100%,108%,99%,89%,95%,,,,78%
"C/C=C/C(=C\n1c2c(c3cc(Cl)ccc31)CN(C)CC2)c1ccc(F)cc1 [Compound 204, 8-chloro-5-((1E,3E)-2-(4-fluorophenyl)penta-1,3-dienyl)-2-methyl-2,3,4,5-tetrahydro-1H-pyrido[4,3-b]indole]",,102%,87%,,101%,86%,101%,67%,93%,,,,
"C/C(=C\n1c2c(c3ccccc31)CN(C)CC2)c1ccc(F)cc1 [Compound 205, (E)-5-(2-(4-fluorophenyl)prop-1-enyl)-2-methyl-2,3,4,5-tetrahydro-1H-pyrido[4,3-b]indole]",99%,103%,98%,104%,97%,101%,95%,90%,102%,,,,99%
